From PubChem BioAssay (NCI)
Where “and” joins values, the source holds several entries; their conditions need not be identical. Identical values can stand only once.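 Method: 48-hour compound exposure of cells in 96-well plates, five concentrations, linear interpolation of endpoints. GI50: concentration for 50% inhibition of growth. The concentration for full growth arrest is given as TGI.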

Test system: MDA-MB-468 breast
Test: growth of human tumour cells (NCI), 48 h

SMILES	GI50	TGI
Cc1cc(N)c2cc(NC(=O)/C=C\c3ccccc3Cl)ccc2n1	0.398 µM	1.48 µM
O=[N+]([O-])c1cc2c(ccc3ccccc32)o1	0.169 µM	0.446 µM
O=C(Nc1ccc(Br)cc1)c1cc(Br)ccc1O	0.328 µM and 0.722 µM	1.68 µM and 3.57 µM
O=C(NCCc1nccs1)c1cnc2c(S)cccc2c1	4.13 µM	39 µM
C=CCn1c(C)nc2cc(Nc3nc(N4CCCC4)nc4nc[nH]c34)ccc21	> 100 µM	> 100 µM
CC1=C(C(=O)Nc2cc(F)c(F)cc2F)C(c2ccc(N(C)C)cc2)C(C(=O)Nc2cc(F)c(F)cc2F)=C(C)N1	30.1 µM	> 100 µM
O=NN(CC(=O)NNc1ccccc1)CC(=O)NNc1ccccc1	> 78.3 µM	> 100 µM
CC(=O)OC1C(C)OC(Oc2c(-c3ccc(O)cc3)oc3cc(O)cc(O)c3c2=O)C(O)C1OC(C)=O (stereo unspecified)	17.8 µM	42.8 µM
Nc1ncnc2c1ncn2C1OC(F)(COS(N)(=O)=O)C(O)C1O (stereo unspecified)	> 100 µM	> 100 µM
O=C(/C=C/c1cccc(Cl)c1)c1ccccc1	13.1 µM	26.9 µM
COc1cccc(/C=C2\COc3ccc(O)c(O)c3C2=O)c1OC	1.67 µM	3.91 µM
COc1ccc(/C(=N/O)c2cc(F)c(F)c(OC)c2F)cc1O	0.552 µM	> 100 µM
CC(C)(C)c1ccc(OCCCCCCCN2CCNCC2)cc1	1.84 µM	3.58 µM
Cc1nc2sc(C(=O)Nc3cccc4c3OCCO4)c(N)c2cc1C(C)O (stereo unspecified)	3.64 µM	> 100 µM
Nc1ncnc2occ(-c3ccc(NC(=O)Nc4cccc(C(F)(F)F)c4)cc3)c12	3.62 µM	11.8 µM
O=C1c2c[n+](Cc3ccccc3)ccc2-c2nc3ccccc3c3ccnc1c23	0.389 µM	1.02 µM
Cc1nc2ccccc2c(/C=C/c2ccc(C(F)(F)F)cc2)c1C(=O)/C=C/c1ccccc1	1.78 µM	3.7 µM
COc1cccc(C2=C(c3cn(C)c4c(C)cccc34)C(=O)NC2=O)c1	20.6 µM	> 25 µM
O=C1/C(=C/c2ccc([N+](=O)[O-])s2)Oc2ccc(Br)cc21	0.263 µM	0.781 µM
COc1cc(/C=C/C(=O)c2cccc(-n3cc(-c4ccccc4)[nH]c3=O)c2)ccc1O	3.43 µM	22.2 µM
Cc1nc2ccccc2c(/C=C/c2ccc(F)cc2)c1C(=O)/C=C/c1ccccc1	1.86 µM	4.26 µM
Nc1ccccc1SC(CC(=O)c1ccccc1)c1c(Cl)cccc1Cl (stereo unspecified)	6.3 µM	27.9 µM
NC(=O)c1c(NC(=O)c2ccc(C(F)(F)F)cc2Cl)sc2c1CCC(=O)C2	0.277 µM	1.04 µM
CCCCCCCCCCCCNCCCc1ccccc1	1.54 µM	3.17 µM
O=C1C=CC(=O)N1c1ccc2ccccc2c1	3.56 µM	14.4 µM
COc1ccc(C(=O)c2no[n+]([O-])c2C(=O)c2ccc(OC)cc2)cc1	1.37 µM	2.78 µM
CCc1n(Cc2ccc3ccccc3c2)cc[n+]1Cc1ccc2ccccc2c1	0.182 µM	0.859 µM
COC(=O)c1ccc(C)cc1C1CN=NC12Cc1c(C)cccc1C2=O (stereo unspecified)	30.7 µM	> 100 µM
